The results in this text go back to US20240100013A1, “SOTAGLIFLOZIN FOR IMPROVING LEFT ATRIAL FUNCTION” (CHARITÉ-UNIVERSITÄTSMEDIZIN BERLIN, priority 2021, published 2024).

The structures appear in SMILES notation.

This assay deals with LA cardiomyocytes. Description: Caffeine-induced CaT: SR Ca2+ load, tau of decay and NCX forward-mode activity. Format: cell-based, rat. From the text: Solutions and chemicals. Chemicals were obtained from Sigma-Aldrich (St. Louis, MO, USA) unless noted otherwise. The dual SGLT1/2 inhibitor sotagliflozin was provided by Lexicon Pharmaceuticals (The Woodlands, TX, USA). Fluorescent dyes Fura-2 AM, Rhod-2 AM, MitoTracker red, MitoTracker green, TMRE and H2-DCF were obtained from Thermo Fisher Scientific (Waltham, MA, USA). Tyrode solution contained (in mM): 130 NaCL, 4 KCl, 2 CaCl, 1 MgCl2, 10 Glucose, 10 HEPES; pH adjusted to 7.4 with NaOH. LA cardiomyocytes were plated on laminin-coated glass coverslips. 20 mM caffeine was added to Tyrode solution to induce sarcoplasmic reticulum (SR) Ca^2+ release and obtain a measure of SR Ca^2+ content. For baseline recordings of Ca^2+ transient (CaT), sarcomere shortening and arrhythmic events (FIGS. 1C-F, 2A-E, 3A-F), Tyrode solution containing 3 mM Ca^2+ was used. For glucose starvation (FIGS. 2H-J, 5A-D), glucose of Tyrode solution was replaced with 30 mM mannitol. For sub-sequent glucose reintroduction, mannitol was replaced with 30 mM glucose (“high glucose condition”).
Ca^2+ measurements and sarcomere shortening. Radiometric Ca^2+ measurements (excitation: 340 nm and 385 nm, emission: 510±10 nm; [Ca^2+] expressed as the ratio R=F340/F380) were performed either with a CytoCypher MultiCell System (CytoCypher BV, Netherlands; FIGS. 1C-F, 2D-G, 4A-F) or an Axiovert 200 microscope (Zeiss, Oberkochen, Germany) fluorescence imaging assembly (FIGS. 2A-C, 2H-J, 3A-E, 6E-I). LA cardiomyocytes were loaded with Fura-2 for 30 min at room temperature, washed twice with Tyrode solution and transferred to the microscope. Experiments were conducted at 37° C. and CaT were recorded at steady state (following electric stimulation).
CaT and sarcomere shortening of LA and LV cardiomyocytes were recorded for 10 s at 3 Hz stimulation. See FIGS. 2D-G, 4A-F. Electric stimulation was turned off and spontaneous SR Ca^2+ release events (See Voigt N, Heijman J, Wang Q, Chiang D Y, Li N, Karck M, Wehrens X H T, Nattel S, Dobrev D: “Cellular and molecular mechanisms of atrial arrhythmogenesis in patients with paroxysmal atrial fibrillation,” Circulation 2014, 129(2):145-156) (SCaEs) immediately recorded for a duration of 10 s (FIG. 1C-F). In a sub-set of LA cells, CaT were recorded for 10 s at 1 Hz stimulation. Electric stimulation was turned off, the cells immediately exposed to 20 mM caffeine and the sub-sequent caffeine-induced CaT recorded for 10 s (FIG. 2A-C, 3A-E). Sodium-calcium exchanger (NCX) activity was calculated as previously described. See Hohendanner F, Walther S, Maxwell J T, Kettlewell S, Awad S, Smith G L, Lonchyna V A, Blatter L A: “Inositol-1,4,5-trisphosphate induced Ca^2+ release and excitation-contraction coupling in atrial myocytes from normal and failing hearts,” J Physiol 2015, 593(6):1459-1477.

Turning to `CCOc1ccc(Cc2cc([C@@H]3O[C@H](SC)[C@@H](O)[C@H](O)[C@H]3O)ccc2Cl)cc1` [sotagliflozin, (2S,3R,4R,5S,6R)-2-(4-chloro-3-(4-ethoxybenzyl)phenyl)-6-(methylthio)tetrahydro-2H-pyran-3,4,5-triol], for the setting “HFpEF, 20 mM caffeine”, the “SR Ca2+ load” value is on record as “no effect” and the “tau of caffeine-induced CaT” value was “unchanged”. Besides, the “tau of decay (paced CaT)” value (HFpEF, 1 Hz electric stimulation) was “significantly prolonged”. For the same compound, where the note is “HFpEF, Sota vs vehicle”, the “increase of contribution of NCX forward-mode activity on cytosolic Ca2+ removal” value is recorded as −50%. Moreover, the “contribution of NCX forward-mode activity on cytosolic Ca2+ removal” value (HFpEF, vehicle 7.6±0.7, n=14 and 21 cells) is 11.6±0.7%. Further, where the note is “after chronic treatment, HFpEF vs WT”, the “increased forward mode NCX activity” value is reported as “only occurs in HFpEF, but not WT”.
